Test results reported in patent US20250268826A1, “IONIZABLE LIPIDOID COMPOSITIONS AND THERAPEUTIC USES THEREOF” (Flagship Pioneering Innovations VII, LLC, priority 2023, published 2025).

experiment: LNP size and polydispersity index (PDI) by dynamic light scattering (DLS); format: physicochemical; details: Table 6; LNP 50:10:38.5:1.5 mol %; hEPO mRNA; N:P 6

PDI | Compound
0.224 | CCCCCCCCC(CCCCCC)C(=O)OCCN(CCOC(=O)C(CCCCCC)CCCCCCCC)C(=O)CC(C)N (stereo not drawn) [Compound 802]
0.281 | CCCCCCCCC(CCCCCC)C(=O)OCCN(CCOC(=O)C(CCCCCC)CCCCCCCC)C(=O)CCCN (stereo not drawn) [Compound 804]
0.214 | CCCCCCCCC(CCCCCC)C(=O)OCCN(CCOC(=O)C(CCCCCC)CCCCCCCC)C(=O)CCC(C)N (stereo not drawn) [Compound 805]

same assay, conditions: Table 6; LNP 60:0:38.5:1.5 mol %; hEPO mRNA; N:P 6

PDI | Size [nm] | Compound
0.195 | 87.6 | CCCCCCCCC(CCCCCC)C(=O)OCCN(CCOC(=O)C(CCCCCC)CCCCCCCC)C(=O)CC(C)N (stereo not drawn) [Compound 802]
0.147 | 81.1 | CCCCCCCCC(CCCCCC)C(=O)OCCN(CCOC(=O)C(CCCCCC)CCCCCCCC)C(=O)CCCN (stereo not drawn) [Compound 804]
0.137 | 84.7 | CCCCCCCCC(CCCCCC)C(=O)OCCN(CCOC(=O)C(CCCCCC)CCCCCCCC)C(=O)CCC(C)N (stereo not drawn) [Compound 805]

same assay, conditions: Table 6; LNP lipid:DSPC:Cholesterol:DMG-PEG2k 50:10:38.5:1.5 mol %; hEPO mRNA; N:P 6

Size [nm] | Compound
104.5 | CCCCCCCCC(CCCCCC)C(=O)OCCN(CCOC(=O)C(CCCCCC)CCCCCCCC)C(=O)CC(C)N (stereo not drawn) [Compound 802]
96 | CCCCCCCCC(CCCCCC)C(=O)OCCN(CCOC(=O)C(CCCCCC)CCCCCCCC)C(=O)CCCN (stereo not drawn) [Compound 804]
110.2 | CCCCCCCCC(CCCCCC)C(=O)OCCN(CCOC(=O)C(CCCCCC)CCCCCCCC)C(=O)CCC(C)N (stereo not drawn) [Compound 805]

experiment: LNP Zeta potential measured using a Zetasizer (Malvern); format: physicochemical; details: Table 6; LNP 50:10:38.5:1.5 mol %; hEPO mRNA; N:P 6

Zeta potential [mV] | Compound
−1.8 | CCCCCCCCC(CCCCCC)C(=O)OCCN(CCOC(=O)C(CCCCCC)CCCCCCCC)C(=O)CC(C)N (stereo not drawn) [Compound 802]
−1.7 | CCCCCCCCC(CCCCCC)C(=O)OCCN(CCOC(=O)C(CCCCCC)CCCCCCCC)C(=O)CCCN (stereo not drawn) [Compound 804]
−0.2 | CCCCCCCCC(CCCCCC)C(=O)OCCN(CCOC(=O)C(CCCCCC)CCCCCCCC)C(=O)CCC(C)N (stereo not drawn) [Compound 805]

same assay, conditions: Table 6; LNP 60:0:38.5:1.5 mol %; hEPO mRNA; N:P 6

Zeta potential [mV] | Compound
0.1 | CCCCCCCCC(CCCCCC)C(=O)OCCN(CCOC(=O)C(CCCCCC)CCCCCCCC)C(=O)CC(C)N (stereo not drawn) [Compound 802]
2.8 | CCCCCCCCC(CCCCCC)C(=O)OCCN(CCOC(=O)C(CCCCCC)CCCCCCCC)C(=O)CCCN (stereo not drawn) [Compound 804]
3 | CCCCCCCCC(CCCCCC)C(=O)OCCN(CCOC(=O)C(CCCCCC)CCCCCCCC)C(=O)CCC(C)N (stereo not drawn) [Compound 805]

experiment: Encapsulation efficiency (EE %) by fluorescence based Ribogreen assay; format: physicochemical; details: Table 6; LNP 50:10:38.5:1.5 mol %; hEPO mRNA; N:P 6

Encapsulation Efficiency % [%] | Compound
98.4 | CCCCCCCCC(CCCCCC)C(=O)OCCN(CCOC(=O)C(CCCCCC)CCCCCCCC)C(=O)CC(C)N (stereo not drawn) [Compound 802]
98.3 | CCCCCCCCC(CCCCCC)C(=O)OCCN(CCOC(=O)C(CCCCCC)CCCCCCCC)C(=O)CCCN (stereo not drawn) [Compound 804]
98.3 | CCCCCCCCC(CCCCCC)C(=O)OCCN(CCOC(=O)C(CCCCCC)CCCCCCCC)C(=O)CCC(C)N (stereo not drawn) [Compound 805]

same assay, conditions: Table 6; LNP 60:0:38.5:1.5 mol %; hEPO mRNA; N:P 6

Encapsulation Efficiency % [%] | Compound
98.4 | CCCCCCCCC(CCCCCC)C(=O)OCCN(CCOC(=O)C(CCCCCC)CCCCCCCC)C(=O)CC(C)N (stereo not drawn) [Compound 802]
99.9 | CCCCCCCCC(CCCCCC)C(=O)OCCN(CCOC(=O)C(CCCCCC)CCCCCCCC)C(=O)CCCN (stereo not drawn) [Compound 804]
99.9 | CCCCCCCCC(CCCCCC)C(=O)OCCN(CCOC(=O)C(CCCCCC)CCCCCCCC)C(=O)CCC(C)N (stereo not drawn) [Compound 805]
